Laboratory results from patent US20230000081A1, “SYNERGISTIC PESTICIDAL COMPOSITIONS FOR DELIVERY OF PESTICIDAL ACTIVE INGREDIENTS AND METHODS THEREFOR” (0903608 B.C. Ltd., priority 2018, published 2023).
“And” between values parts separate entries of the source, which are not always exact repeats. Equal values may be shown once.

What was measured:
Assay in all cases: Synergistic Growth Inhibition Assay (MIC, FIC index; 96-well microtiter plate, resazurin dye)
Format in all cases: cell-based
Botrytis cinerea = conditions: for MIC (A): Compound A alone
Experimental: (§1) In some embodiments, the synergistic action between the pesticidal active ingredient, and the at least one C4-C10 (or alternatively C11 or C12) saturated or unsaturated aliphatic acid components of the pesticidal compositions according to embodiments of the present disclosure was tested using a Synergistic Growth Inhibition Assay, which is derived from and related to a checkerboard assay as is known in the art for testing of combinations of antimicrobial agents. In the Synergistic Growth Inhibition Assay used in accordance with some embodiments of the present disclosure, multiple dilutions of combinations of pesticidal active ingredient and at least one C4-C10 saturated or unsaturated aliphatic acid agents are tested in individual cells for inhibitory activity against a target pest or pathogenic organism. In one such embodiment, the combinations of pesticidal active ingredient and C4-C10 (or alternatively C11 or C12) saturated or unsaturated aliphatic acid agents may preferably be tested in decreasing concentrations. In a further such embodiment, the combinations of pesticidal active ingredient and C4-C10 (or alternatively C11 or C12) saturated or unsaturated aliphatic acid agents may be tested in increasing concentrations. These multiple combinations of the pesticidal active ingredient and at least one C4-C10 (or alternatively C11 or C12) saturated or unsaturated aliphatic acid agents may be prepared in 96-well microtiter plates. In one such embodiment, the Synergistic Growth Inhibition Assay then comprises rows which each contain progressively decreasing concentrations of the pesticidal active ingredient and one or more C4-C10 (or alternatively C11 or C12) saturated or unsaturated aliphatic acid agents to test for the MIC of the agents in combination at which growth of the target pest or pathogen is inhibited. Thus, each well of the microtiter plate is a unique combination of the two agents, at which inhibitory efficacy of the combination against the target pest or pathogen can be determined.
(§2) In one embodiment according to the present disclosure, for each row of microtiter cells in the Synergistic Growth Inhibition Assay, the FIC index is calculated from the lowest concentration of the pesticidal active ingredient and one or more C4-C10 saturated or unsaturated aliphatic acid agents necessary to inhibit growth of a target pest or pathogen. The FIC of each component is derived by dividing the concentration of the agent present in that well of the microtiter plate by the minimal inhibitory concentration (MIC) needed of that agent alone to inhibit growth of the target pest or pathogen. The FIC index is then the sum of these values for both agents in that well of the microtiter plate. The FIC index is calculated for each row as follows:
(§3) FICindex=MICa/MICA+MICb/MICB
(§4) Fractional inhibitory concentration indices may then used as measure of synergy. […] When the FIC index is equal to 1, the combination is additive.
(§5) Then, serial dilutions of these initial compositions in successive wells in the row of the microtiter plate were used to assay the pesticidal composition under the same conditions to determine the concentration of the composition combining the two agents corresponding to the microtiter well in which growth inhibition of the target pest or organism ceases.
Similarly to as described above, Resazurin was used as an indicator of growth or inhibition of growth of Botrytis cinerea in the exemplary Synergistic Growth Inhibition Assay. In addition to the color change of the resazurin, an optical or visual examination of the microtiter well may also be made to additionally determine the presence of growth or inhibition of growth of the Botrytis cinerea.

Fusarium oxysporum = conditions: for MIC (A): Compound A alone
Experimental: as §1, §2, §3, §4
Then, serial dilutions of these initial compositions in successive wells in the row of the microtiter plate were used to assay the pesticidal composition under the same conditions to determine the concentration of the composition combining the two agents corresponding to the microtiter well in which growth inhibition of the target pest or organism ceases. […]

Sclerotinia sclerotiorum = conditions: for MIC (A): Compound A alone
Experimental: as §1, §2, §3, §4, §5
Similarly to as described above, Resazurin was used as an indicator of growth or inhibition of growth of Sclerotinia sclerotiorum in the exemplary Synergistic Growth Inhibition Assay. […]

Alternaria solani = conditions: 7 days incubation; for MIC (A): Compound A alone
Experimental: as §1, with “In one such embodiment, the Synergistic Growth Inhibition Assay then comprises rows which each contain progressively decreasing concentrations of the pesticidal active ingredient and one or more C4-C10 (or alternatively C11 or C12) saturated or unsaturated aliphatic acid agents to test for the MIC of the agents in combination at which growth of the target pest or pathogen is inhibited.” left out
In one embodiment according to the present disclosure, for each row of microtiter cells in the Synergistic Growth Inhibition Assay, the FIC index is calculated from the lowest concentration of the pesticidal active ingredient and one or more C4-C10 saturated or unsaturated aliphatic acid agents necessary to inhibit growth of a target pest or pathogen. […] The FIC index is calculated for each row as follows: […]

[1] = Compound B (aliphatic acid) alone, Botrytis cinerea, 48 hours incubation
[2] = Botrytis cinerea, 48 hours incubation
[3] = Compound B alone, 48 hours incubation
[4] = Sclerotinia sclerotiorum, 7 days incubation
[5] = Fusarium oxysporum, incubation period of 48 hours

## O=C(O)CCCCCCCCCCCO [12-Hydroxydodecanoic acid]
Botrytis cinerea; [1]
  MIC (B): 100 µg/mL and 50 µg/mL

## Cc1cc(C(F)(F)F)nn1CC(=O)N1CCC(c2nc(C3=NOC(c4c(F)cccc4F)C3)cs2)CC1 (stereo not drawn) [Oxathiapiprolin]
Botrytis cinerea; [2]
  MIC (A): 500 µg/mL

## CCCC(O)CC(=O)O (stereo not drawn) [3-Hydroxyhexanoic acid, 3-hydroxyhexanoic acid]
Botrytis cinerea; [1]
  MIC (B): 2500 µg/mL

## N#Cc1c[nH]cc1-c1cccc2c1OC(F)(F)O2 [Fludioxonil, fludioxonil]
Fusarium oxysporum; 24 hour incubation
  MIC (A): 0.24063 µg/mL

## CC(O)CC(=O)O (stereo not drawn) [3-Hydroxybutyric acid, 3-hydroxybutyric acid]
Fusarium oxysporum; [3]
  MIC (B): 10000 µg/mL
Botrytis cinerea; [1]
  MIC (B): 10000 µg/mL

## CCCCCCCC/C=C\CCCCCCCC(=O)O [(9Z)-octadecenoic acid]
Sclerotinia sclerotiorum; Compound B alone, Sclerotinia sclerotiorum, 7 days incubation
  MIC (B): 5000 µg/mL
Botrytis cinerea; Compound B alone, Botrytis cinerea, incubation period of 48 hours
  MIC (B): 5000 µg/mL

## CCC(O)C(=O)O (stereo not drawn) [2-Hydroxybutyric acid]
Alternaria solani; Compound B (aliphatic acid) alone
  MIC (B): 2500 µg/mL

## CO/C=C(/C(=O)OC)c1ccccc1Oc1cc(Oc2ccccc2C#N)ncn1 [Azoxystrobin, azoxystrobin, reference compound]
Sclerotinia sclerotiorum; 7 days incubation
  MIC (A): 75 µg/mL
Sclerotinia sclerotiorum; [4]
  MIC (A): 150 µg/mL
Sclerotinia sclerotiorum; Sclerotinia sclerotiorum, incubation period of 7 days
  MIC (A): 150 µg/mL
Fusarium oxysporum; Fusarium oxysporum, 48 hours incubation
  MIC (A): 150 µg/mL
Fusarium oxysporum; [5]
  MIC (A): 150 µg/mL
Botrytis cinerea; Botrytis cinerea, incubation period of 2 days
  MIC (A): 150 µg/mL
Botrytis cinerea; Botrytis cinerea, incubation period of 48 hours
  MIC (A): 75 µg/mL and 150 µg/mL

## O=C(O)CCCCCCCO [8-Hydroxyoctanoic acid]
Botrytis cinerea; [1]
  MIC (B): 2500 µg/mL

## Mancozeb
Alternaria solani
  MIC (A): 500 µg/mL

## CCCCCCCC(O)CC(=O)O (stereo not drawn) [3-Hydroxydecanoic acid, 3-hydroxydecanoic acid]
Botrytis cinerea; [1]
  MIC (B): 125 µg/mL

## CC(C)(C)C(O)(CCc1ccc(Cl)cc1)Cn1cncn1 (stereo not drawn) [Tebuconazole]
Fusarium oxysporum; [5]
  MIC (A): 225 µg/mL

## CO/C=C(/C(=O)OC)c1ccccc1COc1cccc(C(F)(F)F)n1 [Picoxystrobin]
Sclerotinia sclerotiorum; [4]
  MIC (A): 500 µg/mL
Botrytis cinerea; [2]
  MIC (A): 250 µg/mL
Alternaria solani
  MIC (A): 500 µg/mL

## CCCCCC(=O)O [Hexanoic acid]
Botrytis cinerea; [3]
  MIC (B): 156.2 µg/mL
